According to article PMC8800111 (The Journal of Biological Chemistry, 2021):

What was measured:
Type in all cases: cell-based
[1] = biological target: proteins of U3A human fibrosarcoma cells (4462 proteins detected) (Homo sapiens, UniProt P36776); settings: protein LONP1; U3A cells
[2] = biological target: proteins of U3A human fibrosarcoma cells (4462 proteins detected) (Homo sapiens, UniProt P82933); settings: protein MRPS9; soluble abundance after heat, U3A cells
[3] = biological target: proteins of U3A human fibrosarcoma cells (4462 proteins detected) (Homo sapiens, UniProt P28290); settings: protein SSFA2; U3A, 10 μM, 2 h
[4] = biological target: proteins of U3A human fibrosarcoma cells (4462 proteins detected) (Homo sapiens, UniProt Q9HAU0); settings: protein PLEKHA5, U3A cells
[5] = biological target: proteins of U3A human fibrosarcoma cells (4462 proteins detected) (Homo sapiens, UniProt P29034); settings: protein S100A2, U3A cells
[6] = biological target: proteins of U3A human fibrosarcoma cells (4462 proteins detected) (Homo sapiens, UniProt Q9BSL1); settings: protein UBAC1; soluble abundance after heat, U3A cells
[7] = biological target: proteins of U3A human fibrosarcoma cells (4462 proteins detected) (Homo sapiens, UniProt O75151); settings: protein PHF2; soluble abundance after heat, U3A cells
[8] = biological target: proteins of U3A human fibrosarcoma cells (4462 proteins detected) (Homo sapiens, UniProt P49756); settings: protein RBM25; U3A cells
[9] = biological target: proteins of U3A human fibrosarcoma cells (4462 proteins detected) (Homo sapiens, UniProt Q13829); settings: protein TNFAIP1; U3A cells
[10] = biological target: proteins of U3A human fibrosarcoma cells (4462 proteins detected) (Homo sapiens, UniProt P27824); settings: protein CANX; soluble abundance after heat, U3A cells
[11] = biological target: proteins of U3A human fibrosarcoma cells (4462 proteins detected) (Homo sapiens, UniProt Q8N6T3); settings: protein ARFGAP1; U3A, 10 μM, 2 h
[12] = biological target: proteins of U3A human fibrosarcoma cells (4462 proteins detected) (Homo sapiens, UniProt Q8NBJ4); settings: protein GOLM1; U3A, 10 μM, 2 h
[13] = biological target: proteins of U3A human fibrosarcoma cells (4462 proteins detected) (Homo sapiens, UniProt O60573); settings: protein EIF4E2; soluble abundance after heat, U3A cells
[14] = biological target: proteins of U3A human fibrosarcoma cells (4462 proteins detected) (Homo sapiens, UniProt Q9NRZ9); settings: protein HELLS; soluble abundance after heat, U3A cells
[15] = biological target: proteins of U3A human fibrosarcoma cells (4462 proteins detected) (Homo sapiens, UniProt Q7Z6B0); settings: protein CCDC91, U3A cells
[16] = biological target: proteins of U3A human fibrosarcoma cells (4462 proteins detected) (Homo sapiens, UniProt Q13641); settings: protein TPBG; soluble abundance after heat, U3A cells
[17] = biological target: proteins of U3A human fibrosarcoma cells (4462 proteins detected) (Homo sapiens, UniProt O60563); settings: protein CCNT1; U3A cells
[18] = biological target: proteins of U3A human fibrosarcoma cells (4462 proteins detected) (Homo sapiens, UniProt Q9C0C9); settings: protein UBE2O; soluble abundance after heat, U3A cells
[19] = biological target: proteins of U3A human fibrosarcoma cells (4462 proteins detected) (Homo sapiens, UniProt O14828); settings: protein SCAMP3; soluble abundance after heat, U3A cells
[20] = biological target: proteins of U3A human fibrosarcoma cells (4462 proteins detected) (Homo sapiens, UniProt Q9NPF4); settings: protein OSGEP; soluble abundance after heat, U3A cells
[21] = biological target: proteins of U3A human fibrosarcoma cells (4462 proteins detected) (Homo sapiens, UniProt Q13185); settings: protein CBX3, U3A cells
[22] = biological target: proteins of U3A human fibrosarcoma cells (4462 proteins detected) (Homo sapiens, UniProt Q15269); settings: protein PWP2; U3A cells
[23] = biological target: proteins of U3A human fibrosarcoma cells (4462 proteins detected) (Homo sapiens, UniProt Q6SJ93); settings: protein FAM111B; U3A cells
[24] = biological target: proteins of U3A human fibrosarcoma cells (4462 proteins detected) (Homo sapiens, UniProt Q9NRW3); settings: protein APOBEC3C; U3A cells
[25] = biological target: proteins of U3A human fibrosarcoma cells (4462 proteins detected) (Homo sapiens, UniProt Q00765); settings: protein REEP5; U3A cells
[26] = biological target: proteins of U3A human fibrosarcoma cells (4462 proteins detected) (Homo sapiens, UniProt P49207); settings: protein RPL34; U3A cells
[27] = biological target: proteins of U3A human fibrosarcoma cells (4462 proteins detected) (Homo sapiens, UniProt Q7Z5L2); settings: protein R3HCC1L; U3A, 10 μM, 2 h
[28] = biological target: proteins of U3A human fibrosarcoma cells (4462 proteins detected) (Homo sapiens, UniProt O95104); settings: protein SCAF4; U3A cells
[29] = biological target: proteins of U3A human fibrosarcoma cells (4462 proteins detected) (Homo sapiens, UniProt Q4VC31); settings: protein CCDC58; U3A cells

Sequence of proteins of U3A human fibrosarcoma cells (4462 proteins detected) (Homo sapiens, UniProt O95104) (O95104 whole entry): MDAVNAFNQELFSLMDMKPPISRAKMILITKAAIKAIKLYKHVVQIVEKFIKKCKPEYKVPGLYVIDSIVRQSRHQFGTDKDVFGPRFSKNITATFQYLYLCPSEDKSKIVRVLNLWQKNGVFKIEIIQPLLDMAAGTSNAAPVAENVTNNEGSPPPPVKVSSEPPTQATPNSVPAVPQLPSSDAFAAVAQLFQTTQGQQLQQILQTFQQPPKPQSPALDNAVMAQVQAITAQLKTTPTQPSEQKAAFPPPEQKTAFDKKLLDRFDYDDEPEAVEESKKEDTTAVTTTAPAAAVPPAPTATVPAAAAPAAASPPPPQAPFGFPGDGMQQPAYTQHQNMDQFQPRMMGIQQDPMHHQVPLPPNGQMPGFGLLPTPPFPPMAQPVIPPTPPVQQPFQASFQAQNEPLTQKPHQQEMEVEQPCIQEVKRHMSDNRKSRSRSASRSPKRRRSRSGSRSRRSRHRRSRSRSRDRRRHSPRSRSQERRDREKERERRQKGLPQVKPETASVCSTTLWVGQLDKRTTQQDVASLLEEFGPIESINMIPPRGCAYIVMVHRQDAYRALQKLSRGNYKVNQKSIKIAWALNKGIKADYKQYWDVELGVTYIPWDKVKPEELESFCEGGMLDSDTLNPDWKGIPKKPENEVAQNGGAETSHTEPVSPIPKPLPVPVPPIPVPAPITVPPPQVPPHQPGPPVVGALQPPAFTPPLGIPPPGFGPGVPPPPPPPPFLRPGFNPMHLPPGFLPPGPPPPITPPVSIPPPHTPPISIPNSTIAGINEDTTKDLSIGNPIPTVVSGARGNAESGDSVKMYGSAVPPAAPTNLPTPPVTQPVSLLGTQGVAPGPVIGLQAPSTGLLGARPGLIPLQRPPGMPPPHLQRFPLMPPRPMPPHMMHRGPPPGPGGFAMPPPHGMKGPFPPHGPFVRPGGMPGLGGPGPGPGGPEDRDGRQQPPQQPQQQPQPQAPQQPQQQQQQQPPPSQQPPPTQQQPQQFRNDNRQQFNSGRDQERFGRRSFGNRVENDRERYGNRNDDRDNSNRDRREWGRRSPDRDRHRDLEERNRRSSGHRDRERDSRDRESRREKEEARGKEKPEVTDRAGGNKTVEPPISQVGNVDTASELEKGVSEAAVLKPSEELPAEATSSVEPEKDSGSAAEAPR
Sequence of proteins of U3A human fibrosarcoma cells (4462 proteins detected) (Homo sapiens, UniProt P27824) (P27824 21-592): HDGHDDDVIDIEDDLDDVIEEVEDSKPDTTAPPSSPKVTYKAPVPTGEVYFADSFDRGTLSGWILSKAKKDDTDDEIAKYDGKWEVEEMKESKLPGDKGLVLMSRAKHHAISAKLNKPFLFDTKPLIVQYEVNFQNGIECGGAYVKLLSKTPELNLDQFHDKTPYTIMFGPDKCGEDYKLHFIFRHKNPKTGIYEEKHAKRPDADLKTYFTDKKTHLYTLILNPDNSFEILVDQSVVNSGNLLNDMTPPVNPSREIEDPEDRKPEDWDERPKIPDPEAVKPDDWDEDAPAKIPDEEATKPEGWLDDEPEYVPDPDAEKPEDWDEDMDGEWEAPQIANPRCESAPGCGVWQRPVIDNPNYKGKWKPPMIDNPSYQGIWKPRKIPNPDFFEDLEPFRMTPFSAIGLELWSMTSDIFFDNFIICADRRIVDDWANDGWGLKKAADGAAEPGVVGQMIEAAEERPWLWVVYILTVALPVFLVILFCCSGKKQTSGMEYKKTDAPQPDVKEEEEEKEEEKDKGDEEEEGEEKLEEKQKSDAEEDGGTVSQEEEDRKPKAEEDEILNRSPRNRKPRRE
Sequence of proteins of U3A human fibrosarcoma cells (4462 proteins detected) (Homo sapiens, UniProt Q9NRW3) (Q9NRW3 whole entry): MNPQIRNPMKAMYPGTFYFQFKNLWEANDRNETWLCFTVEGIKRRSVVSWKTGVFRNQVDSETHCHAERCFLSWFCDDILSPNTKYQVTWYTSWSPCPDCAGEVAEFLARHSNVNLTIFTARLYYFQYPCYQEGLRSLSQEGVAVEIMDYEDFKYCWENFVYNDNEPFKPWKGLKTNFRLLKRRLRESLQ
Sequence of proteins of U3A human fibrosarcoma cells (4462 proteins detected) (Homo sapiens, UniProt O75151) (O75151 whole entry): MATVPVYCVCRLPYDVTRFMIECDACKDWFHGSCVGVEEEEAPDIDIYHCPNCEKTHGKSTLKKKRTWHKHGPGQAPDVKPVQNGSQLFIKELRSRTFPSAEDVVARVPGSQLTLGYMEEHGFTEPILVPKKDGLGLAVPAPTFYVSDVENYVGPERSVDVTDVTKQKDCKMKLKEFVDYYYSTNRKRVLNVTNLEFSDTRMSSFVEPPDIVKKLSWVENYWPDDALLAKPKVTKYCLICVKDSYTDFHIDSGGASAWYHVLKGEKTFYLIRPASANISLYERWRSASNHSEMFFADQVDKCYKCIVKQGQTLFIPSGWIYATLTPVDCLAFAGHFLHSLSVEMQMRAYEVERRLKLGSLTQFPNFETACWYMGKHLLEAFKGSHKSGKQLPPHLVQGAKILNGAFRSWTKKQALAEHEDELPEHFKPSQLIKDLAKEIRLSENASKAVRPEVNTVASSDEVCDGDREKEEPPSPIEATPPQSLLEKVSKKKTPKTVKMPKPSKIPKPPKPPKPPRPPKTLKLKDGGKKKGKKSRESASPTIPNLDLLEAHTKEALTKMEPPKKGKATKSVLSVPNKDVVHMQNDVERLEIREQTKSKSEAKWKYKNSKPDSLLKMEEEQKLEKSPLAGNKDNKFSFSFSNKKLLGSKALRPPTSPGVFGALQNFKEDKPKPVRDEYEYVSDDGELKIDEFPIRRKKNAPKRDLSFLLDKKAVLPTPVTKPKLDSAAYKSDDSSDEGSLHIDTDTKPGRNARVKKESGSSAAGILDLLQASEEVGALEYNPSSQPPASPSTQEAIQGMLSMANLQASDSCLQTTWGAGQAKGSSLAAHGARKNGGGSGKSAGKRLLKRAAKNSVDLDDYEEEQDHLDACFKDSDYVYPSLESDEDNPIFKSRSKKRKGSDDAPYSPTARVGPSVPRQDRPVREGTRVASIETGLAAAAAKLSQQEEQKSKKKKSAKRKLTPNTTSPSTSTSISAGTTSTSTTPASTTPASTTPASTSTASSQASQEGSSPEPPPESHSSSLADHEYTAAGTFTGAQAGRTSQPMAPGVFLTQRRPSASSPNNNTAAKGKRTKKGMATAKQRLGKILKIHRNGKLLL
Sequence of proteins of U3A human fibrosarcoma cells (4462 proteins detected) (Homo sapiens, UniProt Q9NPF4) (Q9NPF4 whole entry): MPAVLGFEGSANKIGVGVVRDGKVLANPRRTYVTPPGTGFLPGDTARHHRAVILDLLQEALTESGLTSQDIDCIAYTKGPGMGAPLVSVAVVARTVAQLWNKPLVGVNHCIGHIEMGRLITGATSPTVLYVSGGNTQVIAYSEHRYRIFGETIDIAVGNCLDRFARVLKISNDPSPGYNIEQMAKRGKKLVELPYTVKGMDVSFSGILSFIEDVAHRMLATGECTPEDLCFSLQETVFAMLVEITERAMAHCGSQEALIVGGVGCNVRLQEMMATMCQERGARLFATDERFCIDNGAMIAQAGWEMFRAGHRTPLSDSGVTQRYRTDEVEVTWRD
Sequence of proteins of U3A human fibrosarcoma cells (4462 proteins detected) (Homo sapiens, UniProt O60563) (O60563 whole entry): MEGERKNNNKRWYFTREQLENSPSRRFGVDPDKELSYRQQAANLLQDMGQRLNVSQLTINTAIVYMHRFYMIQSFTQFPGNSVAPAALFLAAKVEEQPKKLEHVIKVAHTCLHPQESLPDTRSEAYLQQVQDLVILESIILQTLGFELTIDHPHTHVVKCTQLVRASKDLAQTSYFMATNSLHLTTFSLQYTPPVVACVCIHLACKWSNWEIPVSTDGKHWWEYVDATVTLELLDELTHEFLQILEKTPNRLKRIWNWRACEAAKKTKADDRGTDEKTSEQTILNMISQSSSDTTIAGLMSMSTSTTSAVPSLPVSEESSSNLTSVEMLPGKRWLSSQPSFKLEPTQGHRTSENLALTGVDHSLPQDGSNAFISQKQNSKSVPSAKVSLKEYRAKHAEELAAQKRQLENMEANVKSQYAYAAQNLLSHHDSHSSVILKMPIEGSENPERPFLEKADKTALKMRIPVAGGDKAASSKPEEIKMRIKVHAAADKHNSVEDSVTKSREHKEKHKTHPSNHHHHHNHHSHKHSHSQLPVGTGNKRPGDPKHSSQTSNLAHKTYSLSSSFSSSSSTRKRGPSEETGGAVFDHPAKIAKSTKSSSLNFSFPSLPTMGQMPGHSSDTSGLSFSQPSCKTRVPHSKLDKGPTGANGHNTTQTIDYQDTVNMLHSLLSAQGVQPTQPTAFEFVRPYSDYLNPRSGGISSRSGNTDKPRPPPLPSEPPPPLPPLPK
Sequence of proteins of U3A human fibrosarcoma cells (4462 proteins detected) (Homo sapiens, UniProt P49756) (P49756 whole entry): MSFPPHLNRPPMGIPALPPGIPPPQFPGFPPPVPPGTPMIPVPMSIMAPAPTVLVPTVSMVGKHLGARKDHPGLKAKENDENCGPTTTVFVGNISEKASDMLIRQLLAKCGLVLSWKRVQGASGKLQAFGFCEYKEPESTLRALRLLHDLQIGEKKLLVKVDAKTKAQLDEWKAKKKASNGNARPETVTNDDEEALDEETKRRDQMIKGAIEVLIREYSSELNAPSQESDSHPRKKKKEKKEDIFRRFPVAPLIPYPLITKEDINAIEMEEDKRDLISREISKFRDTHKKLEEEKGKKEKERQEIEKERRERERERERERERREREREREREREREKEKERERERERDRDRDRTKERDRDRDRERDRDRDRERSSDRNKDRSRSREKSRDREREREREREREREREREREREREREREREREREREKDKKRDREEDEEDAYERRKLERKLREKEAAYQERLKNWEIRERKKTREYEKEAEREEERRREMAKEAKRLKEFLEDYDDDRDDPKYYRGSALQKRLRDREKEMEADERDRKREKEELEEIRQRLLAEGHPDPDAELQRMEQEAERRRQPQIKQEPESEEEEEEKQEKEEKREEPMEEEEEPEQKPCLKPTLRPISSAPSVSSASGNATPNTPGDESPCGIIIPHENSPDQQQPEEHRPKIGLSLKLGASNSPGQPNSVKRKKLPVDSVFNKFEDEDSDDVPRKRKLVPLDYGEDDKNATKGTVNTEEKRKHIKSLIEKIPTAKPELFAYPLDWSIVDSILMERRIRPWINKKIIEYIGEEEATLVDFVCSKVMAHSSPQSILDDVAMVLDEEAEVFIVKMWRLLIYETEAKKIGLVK
Sequence of proteins of U3A human fibrosarcoma cells (4462 proteins detected) (Homo sapiens, UniProt P29034) (P29034 whole entry): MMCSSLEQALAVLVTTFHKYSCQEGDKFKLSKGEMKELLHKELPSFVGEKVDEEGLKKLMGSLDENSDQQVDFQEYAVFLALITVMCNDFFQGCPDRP

CCc1nc(N)nc(N)c1-c1ccc(Cl)cc1 [pyrimethamine]
Log2 (PYR/DMSO) [1]: 0.22
Log2 (PYR/DMSO) [2]: 0.15
Log2 (PYR/DMSO), SSFA2 [3]: -0.15
Log2 (PYR/DMSO) [4]: -0.05
Log2 (PYR/DMSO) [5]: -0.04
Log2 (PYR/DMSO) [6]: 0.13
Log2 (PYR/DMSO) [7]: 0.14
Log2 (PYR/DMSO) [8]: 0.21
Log2 (PYR/DMSO) [9]: 0.21
Log2 (PYR/DMSO) [10]: 0.14
Log2 (PYR/DMSO), ARFGAP1 [11]: -0.14
Log2 (PYR/DMSO), GOLM1 [12]: -0.22
Log2 (PYR/DMSO) [13]: 0.15
Log2 (PYR/DMSO) [14]: 0.14
Log2 (PYR/DMSO) [15]: -0.04
Log2 (PYR/DMSO) [16]: 0.14
Log2 (PYR/DMSO) [17]: 0.18
Log2 (PYR/DMSO) [18]: 0.14
Log2 (PYR/DMSO) [19]: 0.14
Log2 (PYR/DMSO) [20]: 0.14
Log2 (PYR/DMSO) [21]: -0.05
Log2 (PYR/DMSO) [22]: 0.18
Log2 (PYR/DMSO) [23]: 0.20
Log2 (PYR/DMSO) [24]: 0.22
Log2 (PYR/DMSO) [25]: 0.19
Log2 (PYR/DMSO) [26]: 0.21
Log2 (PYR/DMSO), R3HCC1L [27]: -0.20
Log2 (PYR/DMSO) [28]: 0.19
Log2 (PYR/DMSO) [29]: 0.20
